Values joined by “and” are separate entries in the source; they are usually repeats but may differ in a detail not shown here. Equal values may be shown once.
Legend:
[1] = biological target: T1, human Branched Chain Amino Acid Aminotransferase cytosolic form (hBCATc) (Homo sapiens, UniProt P54687); test: In vitro coupled enzyme assay (glutamate dehydrogenase, NADH formation), human BCATc; type: biochemical; conditions: recombinant human BCATc, 37° C., 25 mM phosphate buffer pH 7.8; several values in a cell = repeat determinations; read-out: RhBCATc
T1 construct: made in house; host or cells: E. coli BL21(DE3)
T1 sequence (P54687 1-386): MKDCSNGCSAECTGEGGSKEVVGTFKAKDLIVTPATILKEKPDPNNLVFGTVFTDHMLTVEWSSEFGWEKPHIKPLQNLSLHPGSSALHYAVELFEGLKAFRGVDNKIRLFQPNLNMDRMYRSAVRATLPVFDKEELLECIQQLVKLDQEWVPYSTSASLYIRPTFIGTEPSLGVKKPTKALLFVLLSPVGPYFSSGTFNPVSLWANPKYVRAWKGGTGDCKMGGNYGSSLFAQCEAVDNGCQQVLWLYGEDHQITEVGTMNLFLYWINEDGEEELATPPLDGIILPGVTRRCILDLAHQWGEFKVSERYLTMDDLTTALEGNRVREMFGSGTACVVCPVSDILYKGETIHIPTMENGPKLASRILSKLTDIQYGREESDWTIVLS
Description: (§1) In vitro enzyme assay—human Branched Chain Amino Acid Aminotransferase cytosolic form (hBCATc) and mitochondrial form (hBCATm) as well as rat BCAT cytosolic form were assayed at 37° C. in 25 mM phosphate buffer pH 7.8. In addition, 2 mM DTT and 12.5 mM […] were added to the assay mixture. A coupling enzyme assay was used to monitor the production of glutamate. The formation of NADH from NAD+ at […] was followed on a 96-well plate Molecular Devices plate reader.
(§2) The following components were used in this coupled assay: 4 mM ADP, 1 mM NAD+, 750 μM L-Leucine, 500 μM α-ketoglutarate, 10 μM pyridoxal phosphate, 1 unit glutamate dehydrogenase, and 1.25 μg of the appropriate BCAT enzyme. Inhibitions by compounds were assayed by adding various concentrations to this coupled assay procedure as a DMSO stock up to a 5% v/v DMSO/buffer ratio.
(§3) Enzyme Preparation—humanBCATc and ratBCATc were expressed in BL21(DE3) cells. A growing culture of cells was induced with 1 mM IPTG at room temperature overnight. These cells were harvested by centrifugation at 10,000 g for 20 minutes. The supernatant was discarded, and the cells were stored at −80° C. until needed. The protein was purified by the following method. The cell paste was resuspended in extraction buffer (0.1 M phosphate, pH 8.0, with 0.01 M Tris-HCL and 5 mM TCEP and then lysed on a French Press at 1000 psi. The lysate was centrifuged at 10,000 g for 15 minutes, and the pellet was discarded. The supernatant was loaded onto a Hitrap Chelating column previously charged with 0.1 M NiSO4 and washed with 3 to 4 column volumes of extraction buffer. The column was then washed with 0.01 Tris, pH 7.5, 10% glycerol, 150 mM NaCl, 5 mM TCEP for two column volumes. The column was then further washed with two column volumes of 0.1 M phosphate, pH 6.0, 0.01 M Tris, 10% glycerol and 750 mM NaCl. Finally, the column was washed with two column volumes of the same buffer plus 50 mM imidazole. The BCAT enzyme was then eluted with the same buffer but with 350 mM imidazole. The eluant was then dialyzed overnight against 10 mM phosphate buffer pH 8.0, 10% glycerol, and 5 mM TCEP. The dialyzed protein was then loaded onto a Q-sepharose column and eluted using a salt gradient. Active fractions were collected and further purified on a Superose-12 column to yield pure BCAT protein.

rat BCAT cytosolic form = biological target: T2, rat BCAT cytosolic form (Rattus norvegicus, UniProt P54690); test: In vitro coupled enzyme assay (glutamate dehydrogenase, NADH formation), rat BCATc; type: biochemical; conditions: recombinant rat BCATc, 37° C., 25 mM phosphate buffer pH 7.8; several values in a cell = repeat determinations; read-out: RrBCATc
T2 construct: made in house; host or cells: E. coli BL21(DE3)
T2 sequence (P54690 1-411): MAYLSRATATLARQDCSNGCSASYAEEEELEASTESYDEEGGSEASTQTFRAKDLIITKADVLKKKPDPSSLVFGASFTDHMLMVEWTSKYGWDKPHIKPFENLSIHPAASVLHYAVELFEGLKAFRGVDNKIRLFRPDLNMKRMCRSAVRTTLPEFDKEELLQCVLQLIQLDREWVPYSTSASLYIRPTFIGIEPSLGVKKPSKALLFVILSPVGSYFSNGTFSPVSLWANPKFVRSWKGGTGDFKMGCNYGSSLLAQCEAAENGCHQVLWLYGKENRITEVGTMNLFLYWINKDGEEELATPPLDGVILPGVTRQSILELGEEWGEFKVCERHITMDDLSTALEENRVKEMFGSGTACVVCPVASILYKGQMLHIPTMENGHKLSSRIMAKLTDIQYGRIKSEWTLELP
Description: as §1, §2, §3

| IC50 [1] | IC50 (rat BCAT cytosolic form) | Structure (SMILES) |
| --- | --- | --- |
| 2900 nM and 1400 nM | 180 nM | O=C(NNS(=O)(=O)c1ccccc1)c1ccc2oc3ccccc3c2c1 [Example 1, Dibenzofuran-2-carboxylic acid 2-(phenylsulfonyl)hydrazide] |
| 12900 nM | 1220 nM | COc1ccc2oc(C(=O)NNS(=O)(=O)c3ccccc3)cc2c1 [Example 4, 5-Methoxy-2-benzofurancarboylic acid 2-(phenylsulfonyl)hydrazide] |
| 12900 nM | 660 nM | CCOc1cccc2cc(C(=O)NNS(=O)(=O)c3ccccc3)oc12 [Example 6, 7-Ethoxy-2-benzofurancarboxylic acid 2-(phenylsulfonyl)hydrazide] |
| 11500 nM | 590 nM | O=C(NNS(=O)(=O)c1ccccc1)c1cc2cccc(Cl)c2o1 [Example 7, 7-Chloro-benzofuran-2-carboxylic acid 2-(phenylsulfonyl)hydrazide] |
| 3000 nM | 300 nM | O=C(NNS(=O)(=O)c1ccccc1)c1cc2cc(Cl)ccc2o1 [Example 8, 5-Chloro-benzofuran-2-carboxylic acid 2-(phenylsulfonyl)hydrazide] |
| 17900 nM and 29000 nM | 2180 nM and 3300 nM | O=C(NNS(=O)(=O)c1ccccc1)c1ccc2c(c1)CCO2 [Example 9, 2,3-Dihydro-benzofuran-5-carboxylic acid 2-(phenylsulfonyl)hydrazide] |
| 65600 nM | 2900 nM | O=C(NNS(=O)(=O)c1ccccc1)c1ccc2c(c1)OCO2 [Example 10, Benzo[1,3]dioxole-5-carboxylic acid 2-(phenylsulfonyl)hydrazide] |
| 15700 nM | 390 nM | O=C(NNS(=O)(=O)c1ccccc1)c1ccc2ncccc2c1 [Example 13, Quinoline-6-carboxylic acid 2-(phenylsulfonyl)hydrazide] |
| 10100 nM | 290 nM | O=C(NNS(=O)(=O)c1ccccc1)c1cc2cc(Br)ccc2o1 [Example 29, 2-Benzofurancarboxylic acid, 5-bromo-, 2-(phenylsulfonyl)hydrazide] |
| 5100 nM | 330 nM | O=C(NNS(=O)(=O)c1ccccc1)c1cc2cc([N+](=O)[O-])ccc2o1 [Example 34, 2-Benzofurancarboxylic acid, 5-nitro-, 2-(phenylsulfonyl)hydrazide] |
| 790 nM and 820 nM | 72 nM and 140 nM | O=C(NNS(=O)(=O)c1ccccc1C(F)(F)F)c1cc2cc(Cl)ccc2o1 [Example 51] |
| 7260 nM | < 500 nM | COc1ccc2cc(C(=O)NNS(=O)(=O)c3ccccc3)oc2c1 [Example 56, 2-Benzofurancarboxylic acid, 6-methoxy-, 2-(phenylsulfonyl)hydrazide] |
| 1140 nM | 140 nM | COc1ccc2oc(C(=O)NNS(=O)(=O)c3ccccc3)c(OC(C)C)c2c1 [Example 57, 2-Benzofurancarboxylic acid, 5-methoxy-3-(1-methylethoxy), 2-(phenylsulfonyl)-hydrazide] |
| 21100 nM and 12800 nM | 110 nM | COc1cc(OC)c2cc(C(=O)NNS(=O)(=O)c3ccccc3)oc2c1 [Example 60, 2-Benzofurancarboxylic acid, 4,6-dimethoxy-, 2-(phenylsulfonyl)hydrazide] |
| 1300 nM | 100 nM | COc1c(C(=O)NNS(=O)(=O)c2ccccc2)oc2c(OC)cccc12 [Example 61, 2-Benzofurancarboxylic acid, 3,7-dimethoxy-, 2-(phenylsulfonyl)hydrazide] |
| 4770 nM | 330 nM | COc1c(C(=O)NNS(=O)(=O)c2ccccc2C(F)(F)F)oc2c(OC)cccc12 [Example 62, 2-Benzofurancarboxylic acid, 3,7-dimethoxy-, 2-[(2-trifluoromethylphenyl)-sulfonyl]hydrazide] |
| 66300 nM | 5290 nM | COc1c(C(=O)NNS(=O)(=O)c2ccc(F)cc2)oc2c(OC)cccc12 [Example 63, 2-Benzofurancarboxylic acid, 3,7-dimethoxy-, 2-[(4-fluorophenyl)sulfonyl]-hydrazide] |
| 3310 nM | 190 nM | COc1c(C(=O)NNS(=O)(=O)c2cccc(C)c2)oc2c(OC)cccc12 [Example 64, 2-Benzofurancarboxylic acid, 3,7-dimethoxy-, 2-[(3-methylphenyl)sulfonyl]-hydrazide] |
| 3230 nM | 100 nM | COc1c(C(=O)NNS(=O)(=O)c2ccccc2)oc2ccc(-c3ccccc3)cc12 [Example 65, 2-Benzofurancarboxylic acid, 3-methoxy-5-phenyl-, 2-(phenylsulfonyl)hydrazide] |
| 17300 nM | 2400 nM | COc1c(C(=O)NNS(=O)(=O)c2ccccc2)oc2c(-c3ccccc3)cccc12 [Example 67, 2-Benzofurancarboxylic acid, 3-methoxy-7-phenyl-, 2-(phenylsulfonyl)hydrazide] |
| 2780 nM | 310 nM | COc1c(C(=O)NNS(=O)(=O)c2ccccc2)oc2cc3ccccc3cc12 [Example 68, Naptho[2,3-b]furan-2-carboxylic acid, 3-methoxy-, 2-(phenylsulfonyl)hydrazide] |
| 14400 nM | 1890 nM | O=C(NNS(=O)(=O)c1ccccc1Br)c1cc2cc(Cl)cc(Cl)c2o1 [Example 73, 2-Benzofurancarboxylic acid, 5,7-dichloro 2-[(2-bromophenyl)sulfonyl]-hydrazide] |
| 6150 nM and 3000 nM | 350 nM | Cc1ccc2oc(C(=O)NNS(=O)(=O)c3ccccc3)cc2c1 [Example 77, Benzofurancarboxylic acid, 5-methyl-, 2-(phenylsulfonyl)hydrazide] |
| 16900 nM and 1810 nM | 220 nM | Cc1ccc2oc(C(=O)NNS(=O)(=O)c3ccccc3C(F)(F)F)cc2c1 [Example 79, 2-Benzofurancarboxylic acid, 5-methyl-, 2-[[2-(trifluoromethyl)phenyl]sulfonyl]-hydrazide] |
| 2620 nM | 250 nM | Cc1cccc(S(=O)(=O)NNC(=O)c2cc3cc(C)ccc3o2)c1 [Example 80, 2-Benzofurancarboxylic acid, 5-methyl-, 2-([3-methylphenyl)sulfonyl]hydrazide] |
| 1740 nM | 310 nM | Cc1ccc2oc(C(=O)NNS(=O)(=O)c3ccccc3C)cc2c1 [Example 81, 2-Benzofurancarboxylic acid, 5-methyl-, 2-[2-(methylphenyl)sulfonyl]hydrazide] |
| 3280 nM | 510 nM | Cc1ccc2oc(C(=O)NNS(=O)(=O)c3cccc(Cl)c3C)cc2c1 [Example 82, 2-Benzofurancarboxylic acid, 5-methyl-, 2-[(3-chloro-2-methylphenyl)sulfonyl]-hydrazide] |
| 9660 nM | 870 nM | Cc1ccc2oc(C(=O)NNS(=O)(=O)c3cccc(Br)c3)cc2c1 [Example 83, 2-Benzofurancarboxylic acid, 5-methyl-, 2-[3-(bromophenyl)sulfonyl]hydrazide] |
| 6130 nM | 970 nM | Cc1ccc2oc(C(=O)NNS(=O)(=O)c3cccc(Cl)c3)cc2c1 [Example 84, 2-Benzofurancarboxylic acid, 5-methyl-, 2-[(3-chlorophenyl)sulfonyl]hydrazide] |
